Columns and labels:
HL-60(TB) = assay: Growth inhibition of human HL-60(TB) cells assessed as reduction in cell viability measured after 48 hrs by SRB assay; assay type: functional
K562 = assay: Growth inhibition of human K562 cells assessed as reduction in cell viability measured after 48 hrs by SRB assay; assay type: functional
SR = assay: Growth inhibition of human SR cells assessed as reduction in cell viability measured after 48 hrs by SRB assay; assay type: functional
A549 = assay: Growth inhibition of human A549 cells assessed as reduction in cell viability measured after 48 hrs by SRB assay; assay type: functional
EKVX = assay: Growth inhibition of human EKVX cells assessed as reduction in cell viability measured after 48 hrs by SRB assay; assay type: functional
HOP-92 = assay: Growth inhibition of human HOP-92 cells assessed as reduction in cell viability measured after 48 hrs by SRB assay; assay type: functional
NCI-H226 = assay: Growth inhibition of human NCI-H226 cells assessed as reduction in cell viability measured after 48 hrs by SRB assay; assay type: functional
NCI-H23 = assay: Growth inhibition of human NCI-H23 cells assessed as reduction in cell viability measured after 48 hrs by SRB assay; assay type: functional
COLO 205 = assay: Growth inhibition of human COLO 205 cells assessed as reduction in cell viability measured after 48 hrs by SRB assay; assay type: functional
HCC 2998 = assay: Growth inhibition of human HCC 2998 cells assessed as reduction in cell viability measured after 48 hrs by SRB assay; assay type: functional
HCT-116 = assay: Growth inhibition of human HCT-116 cells assessed as reduction in cell viability measured after 48 hrs by SRB assay; assay type: functional
HCT-15 = assay: Growth inhibition of human HCT-15 cells assessed as reduction in cell viability measured after 48 hrs by SRB assay; assay type: functional
HT-29 = assay: Growth inhibition of human HT-29 cells assessed as reduction in cell viability measured after 48 hrs by SRB assay; assay type: functional
KM12 = assay: Growth inhibition of human KM12 cells assessed as reduction in cell viability measured after 48 hrs by SRB assay; assay type: functional
SF-268 = assay: Growth inhibition of human SF-268 cells assessed as reduction in cell viability measured after 48 hrs by SRB assay; assay type: functional
SF-295 = assay: Growth inhibition of human SF-295 cells assessed as reduction in cell viability measured after 48 hrs by SRB assay; assay type: functional
SNB-19 = assay: Growth inhibition of human SNB-19 cells assessed as reduction in cell viability measured after 48 hrs by SRB assay; assay type: functional
SNB-75 = assay: Growth inhibition of human SNB-75 cells assessed as reduction in cell viability measured after 48 hrs by SRB assay; assay type: functional
U-251 = assay: Growth inhibition of human U-251 cells assessed as reduction in cell viability measured after 48 hrs by SRB assay; assay type: functional
LOX IMVI = assay: Growth inhibition of human LOX IMVI cells assessed as reduction in cell viability measured after 48 hrs by SRB assay; assay type: functional
M14 = assay: Growth inhibition of human M14 cells assessed as reduction in cell viability measured after 48 hrs by SRB assay; assay type: functional
MDA-MB-435 = assay: Growth inhibition of human MDA-MB-435 cells assessed as reduction in cell viability measured after 48 hrs by SRB assay; assay type: functional
SK-MEL-2 = assay: Growth inhibition of human SK-MEL-2 cells assessed as reduction in cell viability measured after 48 hrs by SRB assay; assay type: functional
SK-MEL-28 = assay: Growth inhibition of human SK-MEL-28 cells assessed as reduction in cell viability measured after 48 hrs by SRB assay; assay type: functional
SK-MEL-5 = assay: Growth inhibition of human SK-MEL-5 cells assessed as reduction in cell viability measured after 48 hrs by SRB assay; assay type: functional
UACC-257 = assay: Growth inhibition of human UACC-257 cells assessed as reduction in cell viability measured after 48 hrs by SRB assay; assay type: functional
IGROV-1 = assay: Growth inhibition of human IGROV-1 cells assessed as reduction in cell viability measured after 48 hrs by SRB assay; assay type: functional
OVCAR-3 = assay: Growth inhibition of human OVCAR-3 cells assessed as reduction in cell viability measured after 48 hrs by SRB assay; assay type: functional
OVCAR-4 = assay: Growth inhibition of human OVCAR-4 cells assessed as reduction in cell viability measured after 48 hrs by SRB assay; assay type: functional
OVCAR-5 = assay: Growth inhibition of human OVCAR-5 cells assessed as reduction in cell viability measured after 48 hrs by SRB assay; assay type: functional
OVCAR-8 = assay: Growth inhibition of human OVCAR-8 cells assessed as reduction in cell viability measured after 48 hrs by SRB assay; assay type: functional
NCI/ADR-RES = assay: Growth inhibition of human NCI/ADR-RES cells assessed as reduction in cell viability measured after 48 hrs by SRB assay; assay type: functional
SK-OV-3 = assay: Growth inhibition of human SK-OV-3 cells assessed as reduction in cell viability measured after 48 hrs by SRB assay; assay type: functional
786-0 = assay: Growth inhibition of human 786-0 cells assessed as reduction in cell viability measured after 48 hrs by SRB assay; assay type: functional
A498 = assay: Growth inhibition of human A498 cells assessed as reduction in cell viability measured after 48 hrs by SRB assay; assay type: functional
ACHN = assay: Growth inhibition of human ACHN cells assessed as reduction in cell viability measured after 48 hrs by SRB assay; assay type: functional
CAKI-1 = assay: Growth inhibition of human CAKI-1 cells assessed as reduction in cell viability measured after 48 hrs by SRB assay; assay type: functional
RXF 393 = assay: Growth inhibition of human RXF 393 cells assessed as reduction in cell viability measured after 48 hrs by SRB assay; assay type: functional
TK-10 = assay: Growth inhibition of human TK-10 cells assessed as reduction in cell viability measured after 48 hrs by SRB assay; assay type: functional
UO-31 = assay: Growth inhibition of human UO-31 cells assessed as reduction in cell viability measured after 48 hrs by SRB assay; assay type: functional
PC-3 = assay: Growth inhibition of human PC-3 cells assessed as reduction in cell viability measured after 48 hrs by SRB assay; assay type: functional
MCF7 = assay: Growth inhibition of human MCF7 cells assessed as reduction in cell viability measured after 48 hrs by SRB assay; assay type: functional
MDA-MB-231 = assay: Growth inhibition of human MDA-MB-231 cells assessed as reduction in cell viability measured after 48 hrs by SRB assay; assay type: functional
T47D = assay: Growth inhibition of human T47D cells assessed as reduction in cell viability measured after 48 hrs by SRB assay; assay type: functional
[1] = target: T1, Mitogen-activated protein kinase 8 (Homo sapiens, UniProt P45983); assay: Inhibition of human JNK1 at 10 uM in presence of ATP relative to control
T1 sequence (P45983 whole entry): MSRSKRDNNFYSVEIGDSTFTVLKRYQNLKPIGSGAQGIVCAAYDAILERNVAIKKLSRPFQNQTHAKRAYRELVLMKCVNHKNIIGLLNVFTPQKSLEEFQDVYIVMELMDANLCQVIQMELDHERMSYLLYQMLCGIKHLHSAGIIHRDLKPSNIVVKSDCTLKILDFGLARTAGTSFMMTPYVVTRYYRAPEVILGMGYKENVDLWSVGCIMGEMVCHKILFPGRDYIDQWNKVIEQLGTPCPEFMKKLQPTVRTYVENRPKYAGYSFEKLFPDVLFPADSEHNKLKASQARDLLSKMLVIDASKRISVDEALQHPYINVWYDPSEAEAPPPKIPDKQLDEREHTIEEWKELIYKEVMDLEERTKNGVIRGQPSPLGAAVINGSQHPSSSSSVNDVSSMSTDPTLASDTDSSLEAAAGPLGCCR

[2] = target: Mitogen-activated protein kinase 9 (Homo sapiens, UniProt P45984); assay: Inhibition of human JNK2 at 10 uM in presence of ATP relative to control
Sequence of Mitogen-activated protein kinase 9 (P45984 whole entry, looked up): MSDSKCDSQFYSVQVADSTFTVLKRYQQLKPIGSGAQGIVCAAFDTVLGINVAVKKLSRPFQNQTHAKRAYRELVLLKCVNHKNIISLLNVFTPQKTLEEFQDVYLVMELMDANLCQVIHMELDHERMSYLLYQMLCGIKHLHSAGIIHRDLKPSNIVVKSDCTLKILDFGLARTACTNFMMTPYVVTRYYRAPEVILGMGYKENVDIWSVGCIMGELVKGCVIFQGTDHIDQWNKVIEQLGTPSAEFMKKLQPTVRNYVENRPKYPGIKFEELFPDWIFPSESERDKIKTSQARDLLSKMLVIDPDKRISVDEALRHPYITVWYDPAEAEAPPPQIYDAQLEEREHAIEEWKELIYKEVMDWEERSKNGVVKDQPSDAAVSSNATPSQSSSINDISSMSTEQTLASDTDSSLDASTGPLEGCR

[3] = target: T1, Mitogen-activated protein kinase 8; assay: Inhibition of human JNK1 in presence of ATP

In the case of CC(C)(C)n1cc(-c2ccnc(NCCCNS(=O)(=O)c3ccc(C(F)(F)F)cc3)c2)c(-c2cccc(O)c2)n1, the GI50 (HL-60(TB)) is reported as 2.81 µM, the GI50 (K562) is reported as 2.1 µM and the GI50 (SR) is reported as 2.21 µM. For the same compound, the GI50 (A549) was 2.02 µM, the GI50 (EKVX) was 1.82 µM and the GI50 (HOP-92) was 1.6 µM. For the same compound, the GI50 (NCI-H226) was 2.35 µM, the GI50 (NCI-H23) was 1.67 µM and the GI50 (COLO 205) was 1.95 µM. The GI50 (HCC 2998) was 1.82 µM, the GI50 (HCT-116) was 1.55 µM and the GI50 (HCT-15) was 1.47 µM. It also gave a GI50 (HT-29) of 1.45 µM, a GI50 (KM12) of 2.15 µM and a GI50 (SF-268) of 1.75 µM. The GI50 (SF-295) was 1.69 µM, the GI50 (SNB-19) was 1.98 µM and the GI50 (SNB-75) was 1.94 µM. The GI50 (U-251) was 1.71 µM, the GI50 (LOX IMVI) was 1.72 µM and the GI50 (M14) was 2 µM. For the same compound, the GI50 (MDA-MB-435) was 1.81 µM, the GI50 (SK-MEL-2) was 2.1 µM and the GI50 (SK-MEL-28) was 1.75 µM. The GI50 (SK-MEL-5) was 1.6 µM, the GI50 (UACC-257) was 2.07 µM and the GI50 (IGROV-1) was 1.8 µM. For the same compound, the GI50 (OVCAR-3) was 1.96 µM, the GI50 (OVCAR-4) was 2.29 µM and the GI50 (OVCAR-5) was 1.81 µM. The GI50 (OVCAR-8) was 2.46 µM, the GI50 (NCI/ADR-RES) was 2.07 µM and the GI50 (SK-OV-3) was 2.69 µM. For the same compound, the GI50 (786-0) was 1.8 µM, the GI50 (A498) was 1.54 µM and the GI50 (ACHN) was 1.88 µM. It also gave a GI50 (CAKI-1) of 1.99 µM, a GI50 (RXF 393) of 1.46 µM and a GI50 (TK-10) of 2.31 µM. For the same compound, the GI50 (UO-31) was 1.58 µM, the GI50 (PC-3) was 1.64 µM and the GI50 (MCF7) was 1.78 µM. For the same compound, the GI50 (MDA-MB-231) was 2.13 µM, the GI50 (T47D) was 2.24 µM and the inhibition [1] was 99.5%. For the same compound, the inhibition [2] was 98.7% and the IC50 [3] was 0.142 µM.
